Read-outs that look alike come from different tables or passages of the source.
Tests used:
[1] = test system: intestinal peristalsis; experiment: animal or person; assay type: in vivo; details: for Therapeutical index (inhibition of intestinal peristalsis): LD50 and ED50 intestinal peristalsis, mice; for ED50: Mus musculus, po, read-out: Inhibition of intestinal peristalsis ED50
Method: (8) Antiperistaltic effect on mice
The antiperistaltic effect of the compounds is examined on mice weighing 20 to 25 g according to the method of Stickney and co-workers. Each dosis of the compound to be tested is administered, orally, 60 minutes prior to the administration of a 10 percent carbon suspension. […] 20 minutes after the administration of the carbon suspension, the animals are sacrificed, and the length of the entire small intestine as well as that of the small intestine filled with carbon are determined. The inhibition in relation to the control is calculated in percentage. […] From the values thus-transformed ED50 values are calculated.

[2] = in vivo; details: mouse, mice, 7 days observation, Litchfield-Wilcoxon
Method: (1) Acute toxicity on mice
The acute toxicity is determined on mice of both sex (CFLP breed, body weight 18 to 22 g). For each dosis 6 animals are employed. The compounds tested are administered orally in a volume of 20 ml/kg body weight. After the administration the animals are observed for 7 days. During this period the animals are fed with standard mouse feed and water ad libitum. The toxicity values are determined according to Litchfield-Wilcoxon's method.

[3] = test system: acetic acid writhing; experiment: animal or person; assay type: in vivo; details: for Therapeutical index (analgesic effect, writhing test): LD50 and ED50 writhing test, mice; for ED50: Mus musculus, ip, read-out: Analgesic effect (writhing test) ED50
Method: (9) Analgesic effect on mice (writhing test)
The test is carried out on mice according to the modified method of Newbould. 0.75 percent acetic acid is administered to the animals in a volume of 20 ml/kg, intraperitoneally, and the characteristic "writhing reactions" are counted for a period of 5 minutes, starting from the fifth minute after challenge. […] The inhibition relative to the control group is evaluated in percentage.

[4] = test system: nicotine lethality; experiment: Inhibition of nicotine spasm / nicotine lethality; assay type: in vivo, mice; details: for Therapeutical index (inhibition of nicotine lethality): LD50 and ED50 nicotine lethality; for ED50: Mus musculus, read-out: Inhibition of nicotine lethality ED50
Method: (5) Inhibition of nicotine spasm
The test is carried out on mice according to Stone.

[5] = test system: Tetrabenazine ptosis; experiment: animal or person; assay type: in vivo; details: for Therapeutical index (tetrabenazine ptosis antagonism): LD50 and ED50 tetrabenazine ptosis, mice; for ED50: Mus musculus, po, read-out: Tetrabenazine ptosis antagonism ED50
Method: (2) Tetrabenazine ptosis antagonism on mice
The tetrabenazine ptosis antagonism of the compounds are tested on groups consisting of 10 mice each. […] 30 minutes after the introduction of the active agent or the vehicle, 50 mg/kg of tetrabenazine (3-isobutyl-9,10-[…]-1,2,3,4,6,7-hexahydrobenzo[a]quinolizine-2-one) are administered, intraperitoneally, and the animals with ptosis are counted 30, 60, 90 and 120 minutes after the administration of the tetrabenazine.
Evaluation: the average ptosis value is calculated in each group, and the deviation from the average obtained for the control group (inhibition) is given in percentage. From the data obtained ED50 values are calculated.

[6] = test system: Reserpine ptosis; experiment: animal or person; assay type: in vivo; details: for Therapeutical index (reserpine ptosis antagonism): LD50 and ED50 reserpine ptosis, mice; for ED50: Mus musculus, sc, 1 h, read-out: Reserpine ptosis antagonism ED50
Method: (3) Reserpine ptosis antagonism on mice
Each group consisting of 10 mice are treated with 6 mg/kg of reserpine, subcutaneously. […] The animals with ptosis are counted 60 and 120 minutes after the administration of the compounds to be tested. Evaluation is carried out as given under point (2) above.

[7] = test system: pentatetrazole spasm; experiment: animal or person; assay type: in vivo; details: for Therapeutical index (inhibition of pentatetrazole spasm): LD50 and ED50 pentatetrazole spasm, mice; for ED50: Mus musculus, po, read-out: Inhibition of pentatetrazole spasm ED50
Method: (6) Inhibition of pentatetrazole spasm
The test is performed on mice according to a modified method of Banziger and Hane.

[8] = test system: yohimbine toxicity; experiment: animal or person; assay type: in vivo; details: for Therapeutical index (potentiation of yohimbine toxicity): LD50 and ED50 yohimbine toxicity, mice; for ED50: Mus musculus, ip, read-out: Potentiation of yohimbine toxicity ED50
Method: (4) Yohimbine toxicity test on mice.
The examination is performed according to Quinton's method. Each group of animals consisting of 10 mice are treated with the compounds to be tested and the vehicle without active agent, respectively. After one hour a sublethal dosage of yohimbine in a volume of 20 ml/kg body weight is administered to the test groups, intraperitoneally. The number of the dead animals is recorded 1 and 24 hours after the administration of yohimbine.

[9] = test system: maximum electroshock; experiment: animal or person; assay type: in vivo; details: Mus musculus, po, read-out: Inhibition of maximum electroshock ED50
Method: (7) Maximum inhibition of electroshock
The examination is carried out on mice weighing 20 to 25 g according to Swinyard. Electroshocks having the parameters of 50 Hz, 45 mA and 0.4 sec are employed by means of corneal electrodes. The complete inhibition of the tonic spasm of the lower limb extensor is taken as the criterium of the anticonvulsive action.

[10] = mice, oral, 1 hour before 1.4 mg/kg i.v. nicotine

COc1ccc(Cc2nccc3cc(OC)c(OC)cc23)cc1OC [Papaverine, reference compound]
Therapeutical index (inhibition of intestinal peristalsis) [1]: 2.01 | ED50 [1]: 185 mg/kg | LD50 at 168 h ([2]; oral): 380 mg/kg

N=C1SCCN1c1ccc(N)cc1[N+](=O)[O-] [Compound 15, 3-(4-amino-2-nitrophenyl)-2-iminothiazolidine]
Therapeutical index (inhibition of intestinal peristalsis) [1]: 12 | ED50 [1]: 130 mg/kg | Therapeutical index (analgesic effect, writhing test) [3]: 10.4 | ED50 [3]: 115 mg/kg | LD50 at 168 h ([2]; po): 1200 mg/kg

CCS(=O)(=O)O.CCS(=O)(=O)O.COc1ccc(N2CCSC2=N)c(N)c1 [Compound 7 (diethanesulfonate), 2-imino-3-(2'-amino-4'-methoxyphenyl)-thiazolidine di(ethanesulfonate)]
Therapeutical index (inhibition of intestinal peristalsis) [1]: 10 | ED50 [1]: 200 mg/kg | LD50 at 168 h ([2]; po): 2000 mg/kg

N=C1SCCN1c1ccccc1[N+](=O)[O-] [Compound 10, 3-(2-nitrophenyl)-2-iminothiazolidine]
Therapeutical index (inhibition of intestinal peristalsis) [1]: 5 | ED50 [1]: 140 mg/kg | Therapeutical index (analgesic effect, writhing test) [3]: 17.5 | ED50 [3]: 40 mg/kg | LD50 at 168 h ([2]; po): 700 mg/kg | Therapeutical index (inhibition of nicotine lethality) ([4]; mice): 24 | ED50 ([4]; po): 50 mg/kg

CC(=O)Nc1ccc(O)cc1 [Paracetamol, reference compound]
ED50 [3]: 180 mg/kg

Br.COc1ccc(N2CCSC2=N)c([N+](=O)[O-])c1 [Compound 11, 3-(4-methoxy-2-nitrophenyl)-2-iminothiazolidine hydrobromide]
Therapeutical index (inhibition of intestinal peristalsis) [1]: 6.2 | ED50 [1]: 105 mg/kg | Therapeutical index (tetrabenazine ptosis antagonism) [5]: 16.3 | ED50 [5]: 40 mg/kg | Therapeutical index (reserpine ptosis antagonism) [6]: 16.3 | ED50 [6]: 40 mg/kg | LD50 at 168 h ([2]; po): 650 mg/kg | Therapeutical index (inhibition of pentatetrazole spasm) [7]: 19.11 | ED50 [7]: 34 mg/kg | Therapeutical index (inhibition of nicotine lethality) ([4]; mice): 14.4 | ED50 [4, 10]: 45 mg/kg

Cc1ccc(N2CCSC2=N)c(N)c1 [Compound 13, 3-(2-amino-4-methylphenyl)-2-iminothiazolidine]
Therapeutical index (reserpine ptosis antagonism) [6]: 18.5 | ED50 [6]: 70 mg/kg | Therapeutical index (analgesic effect, writhing test) [3]: 8.1 | ED50 [3]: 160 mg/kg | LD50 at 168 h ([2]; po): 1300 mg/kg | Therapeutical index (potentiation of yohimbine toxicity) [8]: 25 | ED50 [8]: 52 mg/kg | Therapeutical index (inhibition of nicotine lethality) ([4]; mice): 130 | ED50 [4, 10]: 10 mg/kg

N=C1SCCN1c1ccc(N)cc1 [Compound 14, 3-(4-aminophenyl)-2-imino-1,3-thiazolidine]
Therapeutical index (inhibition of intestinal peristalsis) [1]: 4.4 | ED50 [1]: 50 mg/kg | LD50 at 168 h ([2]; po): 400 mg/kg | Therapeutical index (potentiation of yohimbine toxicity) [8]: 20.0 | ED50 [8]: 20 mg/kg

CN(C)CCC=C1c2ccccc2CCc2ccccc21 [Amitriptylin, reference compound]
Therapeutical index (tetrabenazine ptosis antagonism) [5]: 18.7 | ED50 [5]: 12 mg/kg | Therapeutical index (reserpine ptosis antagonism) [6]: 3.5 | ED50 [6]: 65 mg/kg | Therapeutical index (potentiation of yohimbine toxicity) [8]: 18 | ED50 [8]: 12.5 mg/kg

CN1C(=O)OC(C)(C)C1=O [Trimethadion, reference compound]
LD50 at 168 h ([2]; oral): 2050 mg/kg | ED50 [7]: 490 mg/kg | ED50 [9]: 400 mg/kg

Cl.N=C1SCCN1c1ccc(C(F)(F)F)cc1[N+](=O)[O-] [Compound 6, 3-(2-nitro-4-trifluoromethylphenyl)-2-iminothiazolidine hydrochloride]
Therapeutical index (inhibition of intestinal peristalsis) [1]: 100 | ED50 [1]: 8 mg/kg | LD50 at 168 h ([2]; po): 800 mg/kg

OC(CCN1CCCCC1)(c1ccccc1)C1CCCCC1 (centres unmarked) [Trihexyphenidyl, reference compound]
ED50 [4, 10]: 40 mg/kg

N=C1SCCN1c1cc(Cl)ccc1[N+](=O)[O-] [Compound 9, 3-(5-chloro-2-nitrophenyl)-2-iminothiazolidine]
Therapeutical index (inhibition of intestinal peristalsis) [1]: 38.9 | ED50 [1]: 18 mg/kg | Therapeutical index (analgesic effect, writhing test) [3]: 13 | ED50 [3]: 54 mg/kg | LD50 at 168 h ([2]; po): 700 mg/kg

N=C1SCCN1c1ccc(C(F)(F)F)cc1N [Compound 4 (diethanesulfonate)]
Therapeutical index (inhibition of intestinal peristalsis) [1]: 52 | ED50 [1]: 25 mg/kg | Therapeutical index (analgesic effect, writhing test) [3]: 8.1 | ED50 [3]: 160 mg/kg

COc1ccc(N2CCSC2=N)c(N)c1.Cl.Cl [Compound 7, 3-(2-amino-4-methoxyphenyl)-2-iminothiazolidine dihydrochloride]
Therapeutical index (tetrabenazine ptosis antagonism) [5]: 75 | ED50 [5]: 16 mg/kg | LD50 at 168 h ([2]; po): 1200 mg/kg

Cl.N=C1SCCN1c1ccc(Cl)cc1[N+](=O)[O-] [Compound 5, 3-(4-chloro-2-nitrophenyl)-2-iminothiazolidine hydrochloride]
LD50 at 168 h ([2]; po): 1100 mg/kg | Therapeutical index (inhibition of pentatetrazole spasm) [7]: 16.6 | ED50 [7]: 66 mg/kg | Therapeutical index (inhibition of nicotine lethality) ([4]; mice): 122 | ED50 [4, 10]: 9 mg/kg

Cl.Cl.N=C1SCCN1c1cc(Cl)ccc1N [Compound 2, 3-(2-amino-5-chlorophenyl)-2-iminothiazolidine dihydrochloride]
Therapeutical index (tetrabenazine ptosis antagonism) [5]: 32 | ED50 [5]: 25 mg/kg | Therapeutical index (analgesic effect, writhing test) [3]: 18.6 | ED50 [3]: 43 mg/kg | LD50 at 168 h ([2]; po): 800 mg/kg | Therapeutical index (inhibition of pentatetrazole spasm) [7]: 10.2 | ED50 [7]: 78 mg/kg | Therapeutical index (potentiation of yohimbine toxicity) [8]: 16 | ED50 [8]: 50 mg/kg

Cl.N=C1SCCN1c1ccc(C(F)(F)F)cc1N [Compound 4, 3-(2-amino-4-trifluoromethylphenyl)-2-iminothiazolidine hydrochloride]
Therapeutical index (inhibition of intestinal peristalsis) [1]: 19.7 | ED50 [1]: 66 mg/kg | Therapeutical index (tetrabenazine ptosis antagonism) [5]: 32.5 | ED50 [5]: 40 mg/kg | Therapeutical index (reserpine ptosis antagonism) [6]: 38 | ED50 [6]: 34 mg/kg | LD50 at 168 h ([2]; po): 1300 mg/kg | Therapeutical index (inhibition of pentatetrazole spasm) [7]: 8.1 | ED50 [7]: 160 mg/kg

Reference: patent US4665083A, “Iminothiazolidine derivatives” (priority 1984, dated 1987)
